{
  "source": "patent US8741922B2",
  "about": "“Solid forms of N-(4-(7-azabicyclo[2.2,1]heptan-7-yl)-2-trifluoromethyl)phenyl)-4-oxo-5-(trifluoromethyl)-1,4-dihydroquinoline-3-carboxamide” (Vertex Pharmaceuticals Incorporated, priority 2009, dated 2014)",
  "target": "T1, ΔF508-CFTR (Homo sapiens, UniProt P13569, DEL508-508)",
  "T1 construct": "expressed in transfected cells",
  "T1 sequence (P13569 with tags, fused parts or gaps DEL508-508)": "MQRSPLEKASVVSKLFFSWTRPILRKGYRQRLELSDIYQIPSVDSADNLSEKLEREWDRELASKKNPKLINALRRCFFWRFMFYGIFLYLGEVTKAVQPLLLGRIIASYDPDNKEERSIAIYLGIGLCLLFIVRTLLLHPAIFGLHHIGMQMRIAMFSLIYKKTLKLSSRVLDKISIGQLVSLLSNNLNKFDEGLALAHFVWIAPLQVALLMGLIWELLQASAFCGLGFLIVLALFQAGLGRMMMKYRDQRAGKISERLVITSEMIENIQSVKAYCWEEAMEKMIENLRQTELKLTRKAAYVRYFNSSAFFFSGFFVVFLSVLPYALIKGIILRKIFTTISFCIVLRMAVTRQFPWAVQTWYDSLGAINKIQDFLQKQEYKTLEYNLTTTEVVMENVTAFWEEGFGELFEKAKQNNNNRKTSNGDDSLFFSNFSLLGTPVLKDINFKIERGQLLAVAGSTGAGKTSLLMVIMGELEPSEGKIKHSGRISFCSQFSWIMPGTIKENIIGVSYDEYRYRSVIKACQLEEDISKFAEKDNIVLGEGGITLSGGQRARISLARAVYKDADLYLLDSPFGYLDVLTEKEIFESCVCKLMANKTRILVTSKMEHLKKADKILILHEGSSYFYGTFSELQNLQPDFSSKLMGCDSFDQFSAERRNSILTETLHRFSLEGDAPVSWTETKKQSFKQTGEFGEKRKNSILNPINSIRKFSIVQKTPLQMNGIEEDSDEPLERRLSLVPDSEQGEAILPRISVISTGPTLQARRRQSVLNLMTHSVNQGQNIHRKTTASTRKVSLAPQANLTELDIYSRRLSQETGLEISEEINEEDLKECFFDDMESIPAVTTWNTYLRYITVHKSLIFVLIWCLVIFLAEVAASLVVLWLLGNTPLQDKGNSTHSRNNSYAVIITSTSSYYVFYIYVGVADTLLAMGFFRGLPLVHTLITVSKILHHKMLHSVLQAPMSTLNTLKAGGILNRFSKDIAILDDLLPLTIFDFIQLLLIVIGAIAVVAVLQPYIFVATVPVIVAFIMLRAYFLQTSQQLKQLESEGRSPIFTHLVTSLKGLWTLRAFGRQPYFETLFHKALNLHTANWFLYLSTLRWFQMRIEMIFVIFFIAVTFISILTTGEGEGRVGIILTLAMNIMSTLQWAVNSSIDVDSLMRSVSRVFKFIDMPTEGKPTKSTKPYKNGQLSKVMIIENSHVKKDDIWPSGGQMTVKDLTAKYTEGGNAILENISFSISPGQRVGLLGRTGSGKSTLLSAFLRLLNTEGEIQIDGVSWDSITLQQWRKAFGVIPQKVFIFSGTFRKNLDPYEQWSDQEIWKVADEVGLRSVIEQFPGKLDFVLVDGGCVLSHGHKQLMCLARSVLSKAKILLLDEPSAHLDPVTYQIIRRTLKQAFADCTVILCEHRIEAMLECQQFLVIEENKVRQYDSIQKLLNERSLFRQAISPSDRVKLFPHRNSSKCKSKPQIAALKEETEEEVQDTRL",
  "experiment": "Membrane potential optical assay for ΔF508-CFTR potentiation (FLIPR III, voltage sensing dyes)",
  "format": "cell-based",
  "conditions": "assay not explicitly tied to the value, ΔF508-CFTR NIH 3T3 cells",
  "text": "Assays for Detecting and Measuring ΔF508-CFTR Potentiation Properties of Compounds\nMembrane Potential Optical Methods for Assaying ΔF508-CFTR Modulation Properties of Compounds\nThe assay utilizes fluorescent voltage sensing dyes to measure changes in membrane potential using a fluorescent plate reader (e.g., FLIPR III, Molecular Devices, Inc.) as a readout for increase in functional ΔF508-CFTR in NIH 3T3 cells. The driving force for the response is the creation of a chloride ion gradient in conjunction with channel activation by a single liquid addition step after the cells have previously been treated with compounds and subsequently loaded with a voltage sensing dye.\nTo identify potentiators of ΔF508-CFTR, a double-addition HTS assay format was developed. This HTS assay utilizes fluorescent voltage sensing dyes to measure changes in membrane potential on the FLIPR III as a measurement for increase in gating (conductance) of ΔF508 CFTR in temperature-corrected ΔF508 CFTR NIH 3T3 cells. The driving force for the response is a Cl^− ion gradient in conjunction with channel activation with forskolin in a single liquid addition step using a fluorescent plate reader such as FLIPR III after the cells have previously been treated with potentiator compounds (or DMSO vehicle control) and subsequently loaded with a redistribution dye. […]",
  "note": "pEC50: −log10 of the molar value.",
  "data": [
    {"molecule": "O=C(Nc1ccc(N2C3CCC2CC3)cc1C(F)(F)F)c1c[nH]c2cccc(C(F)(F)F)c2c1=O", "note": "[Compound I, Form A, N-(4-(7-azabicyclo[2.2.1]heptan-7-yl)-2-(trifluoromethyl)phenyl)-4-oxo-5-(trifluoromethyl)-1,4-dihydroquinoline-3-carboxamide]", "values": [
      {"measurement": "pEC50", "result": "> 5.70"}
    ]}
  ]
}
